Each structure is given as a SMILES string. Numbered stars: 1 amine (or outer) side, 2 acyl side, 3 side chain; on linkers, the order of the positions; unused ones are H or OH. Square brackets hold non-standard residues; d marks the D form. Peptide text beside a SMILES is read from it. * marks the point of attachment. Acetyl(1-adamantyl) = O=C(CC12CC3CC(CC(C3)C1)C2)*; Propanoyl(3-(3,4-F2Ph)) = O=C(CCc1ccc(F)c(F)c1)*; Propanoyl(3-(4-F-phenyl)) = O=C(CCc1ccc(F)cc1)*; Propanoyl(3-(4-MeO-Ph)) = COc1ccc(CCC(=O)*)cc1; Propanoyl(3-(4-Cl-Ph)) = O=C(CCc1ccc(Cl)cc1)*; Propanoyl(3-(3-pyridyl)) = O=C(CCc1cccnc1)*; Acetyl(1-naphthyl) = O=C(Cc1cccc2ccccc12)*; X10 = O=C([C@@H](Cc1cncs1)N[*:1])[*:2]; 1Nal = N[C@@H](Cc1cccc2ccccc12)C(=O)O; d1Nal = N[C@H](Cc1cccc2ccccc12)C(=O)O; Lys(iPr) = CC(C)NCCCC[C@H](N)C(=O)O; NMeY = CN[C@@H](Cc1ccc(O)cc1)C(=O)O; Hydrocinnamoyl = O=C(CCc1ccccc1)*; Benzoyl(4-F) = O=C(c1ccc(F)cc1)*; d3Pal = N[C@H](Cc1cccnc1)C(=O)O; X11 = CN(C)c1ccc(C=CC(=O)*)cc1; d2Thi = N[C@H](Cc1cccs1)C(=O)O; Nicotinoyl = O=C(c1cccnc1)*; X9 = O=C(CCc1ccc(Br)cc1)*; Morpholide = C1CN(*)CCO1; Orn = NCCC[C@H](N)C(=O)O; X1 = COc1ccccc1C=CC(=O)*; CO = O=C([*:1])[*:2]; Bn = c1ccc(C*)cc1; azaGly = NNC(=O)O

The text below walks through data of US5140009A (Tap Pharmaceuticals, Inc., priority 1990, dated 1992).

The target of one assay is T1, LHRH receptors (Rattus norvegicus, UniProt P30969).
T1 construct: Pituitary membranes containing LHRH receptors are prepared in batches from quick-frozen rat pituitaries; tissue Hilltop Labs; host or cells: rat pituitary membranes
T1 sequence (P30969 1-327): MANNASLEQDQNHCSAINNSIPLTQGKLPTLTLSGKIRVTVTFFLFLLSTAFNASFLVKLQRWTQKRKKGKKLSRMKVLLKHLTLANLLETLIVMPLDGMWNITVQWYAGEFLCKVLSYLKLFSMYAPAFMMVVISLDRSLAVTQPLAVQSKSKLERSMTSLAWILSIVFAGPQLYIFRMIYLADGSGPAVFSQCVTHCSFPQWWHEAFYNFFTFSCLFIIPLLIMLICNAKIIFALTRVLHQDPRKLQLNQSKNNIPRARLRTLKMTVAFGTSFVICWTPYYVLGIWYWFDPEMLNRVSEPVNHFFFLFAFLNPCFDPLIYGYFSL
The assay is described as follows: Receptor Binding (radioligand receptor binding assay). The note with it: table 3; rat pituitary membranes, radioiodinated [D-Leu^6 -des Gly^10 ]-LHRH ethyl amide 50 pM, 2 hours at 4° C.; read-out: Receptor Binding pkI (converted).
Consider `CCNC(=O)[C@@H]1CCCN1C(=O)[C@H](CCCNC(=N)N)NC(=O)[C@H](CC(C)C)NC(=O)[C@@H](CC(C)C)NC(=O)[C@H](Cc1ccc(O)cc1)NC(=O)[C@H](CO)NC(=O)[C@H](Cc1c[nH]c2ccccc12)NC(=O)CCc1ccccc1` [Compound 66, (3-9)[N-(3-Phenylpropionyl)-Trp^3 -D-Leu^6 -Pro^9 -NHEt]LHRH] (Hydrocinnamoyl-WSY[dL]LRP-NHEt), for which the Ki is 1.78 nM.
Same read-out and setting: for `CCNC(=O)[C@@H]1CCCN1C(=O)[C@H](CCCNC(=N)N)NC(=O)[C@H](CC(C)C)NC(=O)[C@@H](CCCNC(=N)N)NC(=O)[C@H](Cc1ccc(O)cc1)NC(=O)[C@H](COCc1ccccc1)NC(=O)Cc1cccc2ccccc12` [Compound 38, (4-9)[N-(1-Naphthylacetyl)-Ser^4 (OBzl)-D-Arg^6 -Pro^9 -NHEt]LHRH] ({Acetyl(1-naphthyl)}-S(Bn)Y[dR]LRP-NHEt) the value was 28.8 nM; for `CCNC(=O)[C@@H]1CCCN1C(=O)[C@H](CCCNC(=N)N)NC(=O)[C@H](CC(C)C)NC(=O)[C@@H](Cc1c[nH]c2ccccc12)NC(=O)[C@H](Cc1ccc(O)cc1)NC(=O)[C@H](CO)NC(=O)[C@H](Cc1c[nH]c2ccccc12)NC(=O)C(CC(=O)N1CCOCC1)Cc1cccc2ccccc12` (single isomer, unassigned) [Compound 131], 0.631 nM; for `CCNC(=O)[C@@H]1CCCN1C(=O)[C@H](CCCN=C(N)N)NC(=O)[C@H](CC(C)C)NC(=O)[C@@H](CC(C)C)NC(=O)[C@H](Cc1ccc(O)cc1)NC(=O)[C@H](CO)NC(=O)CCc1cccnc1` [Compound 41, (4-9)[N-(3-(3-Pyridyl)propionyl)-Ser^4 -D-Leu^6 -Pro^9 -NHEt]LHRH] ({Propanoyl(3-(3-pyridyl))}-SY[dL]LRP-NHEt), 1740 nM.
As for `CCNC(=O)[C@@H]1CCCN1C(=O)[C@H](CCCNC(=N)N)NC(=O)[C@H](CC(C)C)NC(=O)[C@@H](CC(C)C)NC(=O)[C@H](Cc1ccc(O)cc1)NC(=O)[C@H](CO)NC(=O)[C@H](Cc1c[nH]c2ccccc12)NC(=O)C=Cc1ccc(N(C)C)cc1` [Compound 64, (3-9)[N-((para-Dimethylamino)cinnamoyl)-Trp^3 -D-Leu^6 -Pro^9 -NHEt]LHRH] (X11-WSY[dL]LRP-NHEt), the Ki was 437 nM.
Regarding `CCNC(=O)[C@@H]1CCCN1C(=O)[C@H](CCCNC(=N)N)NC(=O)[C@H](CC(C)C)NC(=O)[C@@H](Cc1c[nH]c2ccccc12)NC(=O)[C@H](Cc1ccc(O)cc1)NC(=O)[C@H](CO)NC(=O)C=Cc1ccccc1OC` [Compound 16, (4-9)[N-(ortho-Methoxycinnamoyl)-Ser^4 -D-Trp^6 -Pro^9 -NHEt]LHRH] (X1-SY[dW]LRP-NHEt), the Ki was 1.41 nM.
On the same count and under the same terms, the result for `CCNC(=O)[C@@H]1CCCN1C(=O)[C@H](CCCNC(=N)N)NC(=O)[C@H](CC(C)C)NC(=O)[C@@H](Cc1c[nH]c2ccccc12)NC(=O)[C@H](Cc1ccc(O)cc1)N(C)C(=O)[C@H](CO)NC(=O)CC12CC3CC(CC(C3)C1)C2` [Compound 81, N-[(1-Adamantyl)acetyl]-Ser-N-Me-Tyr-D-Trp-Leu-Arg-Pro -NHEt] ({Acetyl(1-adamantyl)}-S[NMeY][dW]LRP-NHEt) reads 0.589 nM; that for `CCNC(=O)[C@@H]1CCCN1C(=O)[C@H](CCCNC(=N)N)NC(=O)[C@H](CC(C)C)NC(=O)[C@@H](Cc1c[nH]c2ccccc12)NC(=O)[C@H](Cc1ccc(O)cc1)NC(=O)[C@H](CO)NC(=O)[C@H](Cc1c[nH]c2ccccc12)NC(=O)[C@@H](Cc1ccccc1)NC(C)=O` [Compound 134, N-Acetyl-D-Phe-Trp-Ser-Tyr-D-Trp-Leu-Arg-ProNHEt] (Ac-[dF]WSY[dW]LRP-NHEt), 0.398 nM; that for `CCNC(=O)[C@@H]1CCCN1C(=O)[C@H](CCCNC(=N)N)NC(=O)[C@H](CC(C)C)NC(=O)[C@@H](Cc1c[nH]c2ccccc12)NC(=O)[C@H](Cc1ccc(O)cc1)NC(=O)[C@H](CO)NC(=O)[C@H](Cc1c[nH]c2ccccc12)NC(=O)CCc1ccc(OC)cc1` [Compound 95, (3-9)[N-(3-(4-Methoxyphenyl)propionyl) -Trp^3 -D-Trp^6 -Pro^9 NHEt]LHRH] ({Propanoyl(3-(4-MeO-Ph))}-WSY[dW]LRP-NHEt), 0.0776 nM.

The assay is the same for the next values; noted with them: table 4; rat pituitary membranes, radioligand 50 pM, 2 hours at 4° C.; read-out: Receptor Binding pkI (converted).
As for `CC(C)C[C@H](NC(=O)[C@@H](Cc1c[nH]c2ccccc12)NC(=O)[C@H](Cc1ccc(O)cc1)N(C)C(=O)[C@H](CO)NC(=O)[C@@H](Cc1c[nH]c2ccccc12)NC(=O)[C@@H](Cc1cccc2ccccc12)NC(=O)N1CCOCC1)C(=O)N[C@@H](CCCNC(=N)N)C(=O)N1CCC[C@H]1C(=O)N[C@H](C)C(N)=O` [Compound 220, (2-10)[N-(alpha-Morpholinocarbonyl)-D-1-Nal^2 -D-Trp^3,6 -NMeTyr^5 -D-Ala^10]LHRH] ({Morpholide-CO}-[d1Nal][dW]S[NMeY][dW]LRP[dA]-NH2), the Ki was 0.17 nM.
`CCNC(=O)[C@@H]1CCCN1C(=O)[C@H](CCCNC(=N)N)NC(=O)[C@H](CC(C)C)NC(=O)[C@@H](Cc1c[nH]c2ccccc12)NC(=O)[C@H](Cc1ccc(O)cc1)N(C)C(=O)[C@H](CO)NC(=O)[C@H](Cc1cccc2ccccc12)NC(=O)CCc1ccc(Br)cc1` [Compound 160, (3-9)[N-(3-(4-Bromophenyl)propionyl) -1-Nal^3 -NMeTyr^5 -DTrp^6 -Pro^9 NHEt]LHRH] (X9-[1Nal]S[NMeY][dW]LRP-NHEt): the Ki is 0.11 nM.
Regarding `CCNC(=O)[C@@H]1CCCN1C(=O)[C@H](CCCN=C(N)N)NC(=O)[C@H](CC(C)C)NC(=O)[C@@H](Cc1c[nH]c2ccccc12)NC(=O)[C@H](Cc1ccc(O)cc1)NC(=O)[C@H](CO)NC(=O)[C@@H](Cc1c[nH]c2ccccc12)NC(=O)CCc1ccc(F)c(F)c1` [Compound 151, (3-9)[N-(3-(3,4-diFluorophenyl)propionyl) -D-Trp^3,6 -Pro^9 NHEt]LHRH] ({Propanoyl(3-(3,4-F2Ph))}-[dW]SY[dW]LRP-NHEt), the Ki was 0.0282 nM.
The same measure, in the same setting: for `CC(C)C[C@H](NC(=O)[C@@H](Cc1cccnc1)NC(=O)[C@H](Cc1ccc(O)cc1)NC(=O)[C@H](COCc1ccccc1)NC(=O)[C@@H](Cc1cccc2ccccc12)NC(=O)CCc1ccc(F)cc1)C(=O)N[C@@H](CCCCNC(C)C)C(=O)N1CCC[C@H]1C(=O)N[C@H](C)C(N)=O` [Compound 202, (3-10)[N-(3-(4-Fluorophenyl)propionyl)-D-1-Nal^3 -Ser^4 (O-Bzl)-D-3-Pal^6 -Lys^8 (N-epsilon-isopropyl)-D-Ala^10]LHRH] ({Propanoyl(3-(4-F-phenyl))}-[d1Nal]S(Bn)Y[d3Pal]L[Lys(iPr)]P[dA]-NH2) the value was 0.138 nM.
Still for that read-out and setting: for `CC(=O)NCCC[C@H](NC(=O)c1ccc(F)cc1)C(=O)N[C@H](Cc1cccc2ccccc12)C(=O)N[C@@H](CO)C(=O)N(C)[C@@H](Cc1ccc(O)cc1)C(=O)N[C@H](Cc1cncs1)C(=O)N[C@@H](CC(C)C)C(=O)N[C@@H](CCCCNC(C)C)C(=O)N1CCC[C@H]1C(=O)N[C@H](C)C(N)=O` [Compound 215, N-alpha-(4-Fluorobenzoyl)-Orn(N-delta-acetyl)-D-1-Nal-Ser-NMeTyr-D-Thiaz-Leu-Lys(N-epsilon-isopropyl)-Pro-D-AlaNH2] ({Benzoyl(4-F)}-[Orn](Ac)[d1Nal]S[NMeY][X10]L[Lys(iPr)]P[dA]-NH2) the value was 0.339 nM; for `CC(C)C[C@H](NC(=O)[C@@H](CCCCNC(=O)c1cccnc1)NC(=O)[C@H](CCCCNC(=O)NN)NC(=O)[C@H](CO)NC(=O)[C@@H](Cc1cccc2ccccc12)NC(=O)CCc1ccc(F)cc1)C(=O)N[C@@H](CCCNC(=N)N)C(=O)N1CCC[C@H]1C(=O)N[C@H](C)C(N)=O` [Compound 212, N-(3-(4-Fluorophenyl)propionyl)-D-1-Nal-Ser-Lys(N-epsilon-hydrazinecarbonyl)-D-Lys(N-epsilon-nicotinyl)-Leu-Arg-Pro-D-AlaNH2] ({Propanoyl(3-(4-F-phenyl))}-[d1Nal]SK(azaGly)[dK](Nicotinoyl)LRP[dA]-NH2), 0.0339 nM; for `CC(C)C[C@H](NC(=O)[C@@H](Cc1ccc(O)cc1)NC(=O)[C@H](Cc1ccc(O)cc1)N(C)C(=O)[C@H](CO)NC(=O)[C@@H](Cc1c[nH]c2ccccc12)NC(=O)CCc1ccc(F)cc1)C(=O)N[C@@H](CCCCNC(C)C)C(=O)N1CCC[C@H]1C(=O)N[C@H](C)C(N)=O` [Compound 196, (3-10)[N-(3-(4-Fluorophenyl)propionyl)-D-Trp^3 -NMeTyr^5 -D-Tyr^6 -Lys^8 (N-epsilon-isopropyl)-D-Ala^10]LHRH] ({Propanoyl(3-(4-F-phenyl))}-[dW]S[NMeY][dY]L[Lys(iPr)]P[dA]-NH2), 0.0234 nM.
Turning to `CC(C)C[C@H](NC(=O)[C@@H](CCCCN)NC(=O)[C@H](Cc1ccc(O)cc1)N(C)C(=O)[C@H](COCc1ccccc1)NC(=O)[C@@H](Cc1cccs1)NC(=O)CCc1ccc(Cl)cc1)C(=O)N[C@@H](CCCNC(=N)N)C(=O)N1CCC[C@H]1C(=O)N[C@H](C)C(N)=O` [Compound 168, (3-10)[N-(3-(4-Chlorophenyl)propionyl)-D-Thia^3 -Ser(O-Bzl)^4 -NMeTyr^5 -D-Lys^6 -D-Ala^10]LHRH] ({Propanoyl(3-(4-Cl-Ph))}-[d2Thi]S(Bn)[NMeY][dK]LRP[dA]-NH2), the Ki was 0.129 nM.
The same measure, in the same setting: the result for `CC(C)C[C@H](NC(=O)[C@@H](CCCCNC(=O)c1cccnc1)NC(=O)[C@H](Cc1ccccc1)NC(=O)[C@H](CO)NC(=O)[C@@H](Cc1cccc2ccccc12)NC(=O)CCc1ccc(F)cc1)C(=O)N[C@@H](CCCCNC(C)C)C(=O)N1CCC[C@H]1C(=O)N[C@H](C)C(N)=O` [Compound 252, (3-10)[N-(3-(4-Fluorophenyl)propionyl)-D-1-Nal^3 -Phe^5 -D-Lys^6 (N-epsilon-nicotinyl)-Lys^8 (N-epsilon-isopropyl)-D-Ala^10]LHRH] ({Propanoyl(3-(4-F-phenyl))}-[d1Nal]SF[dK](Nicotinoyl)L[Lys(iPr)]P[dA]-NH2) reads 0.0132 nM.
